{"source": "ChEMBL document CHEMBL1275495", "about": "“Clinical isolates of Aspergillus species remain fully susceptible to voriconazole in the post-voriconazole era” (2008)", "type_in_all_cases": "functional", "key": {"[1]": {"system": "Aspergillus terreus", "experiment": "Antifungal activity against Aspergillus terreus clinical isolate obtained from invasive aspergillosis patient after 48 hrs by CLSI method"}, "[2]": {"system": "Aspergillus niger", "experiment": "Antifungal activity against Aspergillus niger clinical isolate obtained from invasive aspergillosis patient after 48 hrs by CLSI method"}, "[3]": {"system": "Aspergillus sp.", "experiment": "Antifungal activity against Aspergillus sp. clinical isolate obtained from invasive aspergillosis patient selected after drug exposure after 48 hrs by CLSI method"}, "[4]": {"system": "Aspergillus sp.", "experiment": "Antifungal activity against Aspergillus sp. selected after drug exposure after 48 hrs by CLSI method"}, "[5]": {"system": "Aspergillus flavus", "experiment": "Antifungal activity against Aspergillus flavus clinical isolate obtained from invasive aspergillosis patient after 48 hrs by CLSI method"}, "[6]": {"system": "Aspergillus sp.", "experiment": "Antifungal activity against Aspergillus sp. clinical isolate obtained from invasive aspergillosis patient after 48 hrs by CLSI method"}, "[7]": {"system": "Aspergillus", "experiment": "Antifungal activity against Aspergillus species after 48 hrs by CLSI method"}, "[8]": {"system": "Aspergillus fumigatus", "experiment": "Antifungal activity against Aspergillus fumigatus clinical isolate obtained from invasive aspergillosis patient after 48 hrs by CLSI method"}}}
{"compound": "C[C@@H](c1ncncc1F)[C@](O)(Cn1cncn1)c1ccc(F)cc1F", "note": "[VORICONAZOLE]", "values": [{"measurement": "Activity", "setting": "[1]", "result": 0.76, "unit": "µg/mL"}, {"measurement": "Activity", "setting": "[2]", "result": 0.76, "unit": "µg/mL"}, {"measurement": "MIC", "setting": "[3]", "result": 0.61, "unit": "µg/mL"}, {"measurement": "MIC50", "setting": "[3]", "result": 0.5, "unit": "µg/mL"}, {"measurement": "MIC90", "setting": "[3]", "result": 1, "unit": "µg/mL"}, {"measurement": "MIC", "setting": "[4]", "result": 0.4, "unit": "µg/mL"}, {"measurement": "MIC50", "setting": "[4]", "result": 0.25, "unit": "µg/mL"}, {"measurement": "MIC90", "setting": "[4]", "result": 0.5, "unit": "µg/mL"}, {"measurement": "Activity", "setting": "[5]", "result": 0.76, "unit": "µg/mL"}, {"measurement": "MIC", "setting": "[6]", "result": 0.57, "unit": "µg/mL"}, {"measurement": "MIC50", "setting": "[6]", "result": 0.5, "unit": "µg/mL"}, {"measurement": "MIC90", "setting": "[6]", "result": 1, "unit": "µg/mL"}, {"measurement": "MIC", "setting": "[7]", "result": 0.39, "unit": "µg/mL"}, {"measurement": "MIC50", "setting": "[7]", "result": 0.25, "unit": "µg/mL"}, {"measurement": "MIC90", "setting": "[7]", "result": 0.5, "unit": "µg/mL"}, {"measurement": "Activity", "setting": "[8]", "result": 0.46, "unit": "µg/mL"}]}
